Consider 20 compounds from patent US20230123334A1, “AMINO LIPID COMPOUND, PREPARATION METHOD THEREFOR, AND APPLICATION THEREOF” (SHENZHEN SHENXIN BIOTECHNOLOGY CO., LTD., priority 2020, published 2023).

One assay relates to HEK293 cells. As to the kind of experiment: Preliminary screening as DNA vectors, GFP transfection of HEK293 cells. It counts as cell-based. The note with it: HEK293 cells; lipid/DOPE liposome with 75 ng plasmid DNA (psin-EGFP-IRES-Puro); number of cells expressing GFP divided by total number of nuclei (Hoechst). Put shortly:
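Lipid + DOPE liposomes (NaOAc, pH 5.6) complexed w/ 75 ng psin-EGFP-IRES-Puro, 30 min RT; added to 3-5×10^4 HEK293/well, 37° C. Hoechst 0.2 μg/mL at 20-24 h, imaged after further 20-24 h. Efficiency = GFP+ cells / total nuclei.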
`CCCCCCCCCCCCCCCSc1nc(NCCN(C)C)nc(SCCCCCCCCCCCC)n1` [Compound S12S15D1]: the “Absolute DNA transfection efficiency in HEK293 cells” value (“Absolute DNA transfection efficiency” below) stood at 0.8%.

On to `CCCCCCCCCCCCCCCSc1nc(NCCN2CCOCC2)nc(SCCCCCCCCCCCC)n1` [Compound S12S15D2], for which the “Absolute DNA transfection efficiency” value is 0.5%.

Take `CCCCCCCCCCCCCCCSc1nc(NCCN2CCCC2)nc(SCCCCCCCCCCCC)n1` [Compound S12S15D3]: the “Absolute DNA transfection efficiency” value is listed as 2.9%.

Consider `CCCCCCCCCCCCCCCSc1nc(NCCN2CCCCC2)nc(SCCCCCCCCCCCC)n1` [Compound S12S15D4], for which the “Absolute DNA transfection efficiency” value came to 3.8%.

Turning to `CCCCCCCCCCCCCCCSc1nc(NCCN2CCN(C)CC2)nc(SCCCCCCCCCCCC)n1` [Compound S12S15D5], the “Absolute DNA transfection efficiency” value is reported as 0.1%.

With `CCCCCCCCCCCCCCCSc1nc(NCCCN(C)C)nc(SCCCCCCCCCCCC)n1` [Compound S12S15D6], the “Absolute DNA transfection efficiency” value is listed as 4.4%.

With `CCCCCCCCCCCCCCCSc1nc(NCCN(CC)CC)nc(SCCCCCCCCCCCC)n1` [Compound S12S15D7], the “Absolute DNA transfection efficiency” value is recorded as 1.4%.

Consider `CCCCCCCCCCCCCCCSc1nc(NCCCN2CCOCC2)nc(SCCCCCCCCCCCC)n1` [Compound S12S15D8], for which the “Absolute DNA transfection efficiency” value is 3.1%.

Consider `CCCCCCCCCCCCCCCSc1nc(NCCCN2CCN(C)CC2)nc(SCCCCCCCCCCCC)n1` [Compound S12S15D9], for which the “Absolute DNA transfection efficiency” value is on record as 2.0%.

As for `CCCCCCCCCCCCCCCSc1nc(NCC2CCN(C)CC2)nc(SCCCCCCCCCCCC)n1` [Compound S12S15D10], the “Absolute DNA transfection efficiency” value stood at 9.9%.

On to `CCCCCCCCCCCCCCCCSc1nc(NCCN(C)C)nc(SCCCCCCCCCCCC)n1` [Compound S12S16D1], for which the “Absolute DNA transfection efficiency” value is on record as 0.6%.

Take `CCCCCCCCCCCCCCCCSc1nc(NCCN2CCOCC2)nc(SCCCCCCCCCCCC)n1` [Compound S12S16D2]: the “Absolute DNA transfection efficiency” value is listed as 0.0%.

In the case of `CCCCCCCCCCCCCCCCSc1nc(NCCN2CCCC2)nc(SCCCCCCCCCCCC)n1` [Compound S12S16D3], the “Absolute DNA transfection efficiency” value is on record as 2.0%.

Consider `CCCCCCCCCCCCCCCCSc1nc(NCCN2CCCCC2)nc(SCCCCCCCCCCCC)n1` [Compound S12S16D4], for which the “Absolute DNA transfection efficiency” value is reported as 3.3%.

Consider `CCCCCCCCCCCCCCCCSc1nc(NCCN2CCN(C)CC2)nc(SCCCCCCCCCCCC)n1` [Compound S12S16D5], for which the “Absolute DNA transfection efficiency” value is recorded as 0.1%.

In the case of `CCCCCCCCCCCCCCCCSc1nc(NCCCN(C)C)nc(SCCCCCCCCCCCC)n1` [Compound S12S16D6], the “Absolute DNA transfection efficiency” value was 2.7%.

Consider `CCCCCCCCCCCCCCCCSc1nc(NCCN(CC)CC)nc(SCCCCCCCCCCCC)n1` [Compound S12S16D7], for which the “Absolute DNA transfection efficiency” value turned out to be 0.7%.

Take `CCCCCCCCCCCCCCCCSc1nc(NCCCN2CCOCC2)nc(SCCCCCCCCCCCC)n1` [Compound S12S16D8]: the “Absolute DNA transfection efficiency” value came to 0.2%.

As for `CCCCCCCCCCCCCCCCSc1nc(NCCCN2CCN(C)CC2)nc(SCCCCCCCCCCCC)n1` [Compound S12S16D9], the “Absolute DNA transfection efficiency” value came out at 0.5%.

Regarding `CCCCCCCCCCCCCCCCSc1nc(NCC2CCN(C)CC2)nc(SCCCCCCCCCCCC)n1` [Compound S12S16D10], the “Absolute DNA transfection efficiency” value came to 7.3%.

The test system of a further assay is HEK293 cells. Briefly: Preliminary screening as mRNA vectors, EGFP mRNA transfection of HEK293 cells. It counts as cell-based. Conditions: HEK293 cells, 96-well plates, EGFP mRNA 50 ng per well; percentage of GFP fluorescent cells relative to total number of cells (Hoechst). The method, boiled down: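 Each well of HEK293 cells received 50 ng of EGFP mRNA. Efficiency was expressed as percent GFP-expressing cells over Hoechst-defined total cell number.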
In the case of `CCCCCCCCCCCCCCCSc1nc(NCCN(C)C)nc(SCCCCCCCCCCCC)n1` [Compound S12S15D1], the “Absolute mRNA transfection efficiency in HEK293 cells” value (shortened to “Absolute mRNA transfection efficiency”) is recorded as 4.1%.

Regarding `CCCCCCCCCCCCCCCSc1nc(NCCN2CCOCC2)nc(SCCCCCCCCCCCC)n1` [Compound S12S15D2], the “Absolute mRNA transfection efficiency” value was 0.0%.

`CCCCCCCCCCCCCCCSc1nc(NCCN2CCCC2)nc(SCCCCCCCCCCCC)n1` [Compound S12S15D3]: the “Absolute mRNA transfection efficiency” value is given as 9.7%.

Regarding `CCCCCCCCCCCCCCCSc1nc(NCCN2CCCCC2)nc(SCCCCCCCCCCCC)n1` [Compound S12S15D4], the “Absolute mRNA transfection efficiency” value is on record as 3.3%.

`CCCCCCCCCCCCCCCSc1nc(NCCN2CCN(C)CC2)nc(SCCCCCCCCCCCC)n1` [Compound S12S15D5]: the “Absolute mRNA transfection efficiency” value was 1.4%.

Consider `CCCCCCCCCCCCCCCSc1nc(NCCCN(C)C)nc(SCCCCCCCCCCCC)n1` [Compound S12S15D6], for which the “Absolute mRNA transfection efficiency” value is on record as 0.0%.

As to `CCCCCCCCCCCCCCCSc1nc(NCCN(CC)CC)nc(SCCCCCCCCCCCC)n1` [Compound S12S15D7], the “Absolute mRNA transfection efficiency” value turned out to be 0.0%.

Turning to `CCCCCCCCCCCCCCCSc1nc(NCCCN2CCOCC2)nc(SCCCCCCCCCCCC)n1` [Compound S12S15D8], the “Absolute mRNA transfection efficiency” value is reported as 3.2%.

Consider `CCCCCCCCCCCCCCCSc1nc(NCCCN2CCN(C)CC2)nc(SCCCCCCCCCCCC)n1` [Compound S12S15D9], for which the “Absolute mRNA transfection efficiency” value is 0.9%.

As to `CCCCCCCCCCCCCCCSc1nc(NCC2CCN(C)CC2)nc(SCCCCCCCCCCCC)n1` [Compound S12S15D10], the “Absolute mRNA transfection efficiency” value is 43.1%.

On to `CCCCCCCCCCCCCCCCSc1nc(NCCN(C)C)nc(SCCCCCCCCCCCC)n1` [Compound S12S16D1], for which the “Absolute mRNA transfection efficiency” value was determined as 0.0%.

Turning to `CCCCCCCCCCCCCCCCSc1nc(NCCN2CCOCC2)nc(SCCCCCCCCCCCC)n1` [Compound S12S16D2], the “Absolute mRNA transfection efficiency” value is on record as 0.0%.

With `CCCCCCCCCCCCCCCCSc1nc(NCCN2CCCC2)nc(SCCCCCCCCCCCC)n1` [Compound S12S16D3], the “Absolute mRNA transfection efficiency” value is 0.1%.

`CCCCCCCCCCCCCCCCSc1nc(NCCN2CCCCC2)nc(SCCCCCCCCCCCC)n1` [Compound S12S16D4]: the “Absolute mRNA transfection efficiency” value was found to be 6.3%.

`CCCCCCCCCCCCCCCCSc1nc(NCCN2CCN(C)CC2)nc(SCCCCCCCCCCCC)n1` [Compound S12S16D5]: the “Absolute mRNA transfection efficiency” value amounted to 0.1%.

Turning to `CCCCCCCCCCCCCCCCSc1nc(NCCCN(C)C)nc(SCCCCCCCCCCCC)n1` [Compound S12S16D6], the “Absolute mRNA transfection efficiency” value turned out to be 1.2%.

With `CCCCCCCCCCCCCCCCSc1nc(NCCN(CC)CC)nc(SCCCCCCCCCCCC)n1` [Compound S12S16D7], the “Absolute mRNA transfection efficiency” value is 0.0%.

Consider `CCCCCCCCCCCCCCCCSc1nc(NCCCN2CCOCC2)nc(SCCCCCCCCCCCC)n1` [Compound S12S16D8], for which the “Absolute mRNA transfection efficiency” value is given as 0.0%.

With `CCCCCCCCCCCCCCCCSc1nc(NCCCN2CCN(C)CC2)nc(SCCCCCCCCCCCC)n1` [Compound S12S16D9], the “Absolute mRNA transfection efficiency” value was determined as 0.0%.

With `CCCCCCCCCCCCCCCCSc1nc(NCC2CCN(C)CC2)nc(SCCCCCCCCCCCC)n1` [Compound S12S16D10], the “Absolute mRNA transfection efficiency” value came to 13.2%.
